Laboratory results published in patent US8389563B2, “C-substituted diindolylmethane compositions and methods for the treatment of multiple cancers” (The Texas A&M University System, priority 2000, dated 2013).

Legend:
[1] = test system: CYP1A1-dependent ethoxyresorufin O-deethylase (EROD) activity; test: Induction of EROD activity in 22Rv1 prostate cancer cells; conditions: treatment for 24 hrs; TCDD 0.1 to 10 nM
Excerpt: (§1) Results illustrated below summarize the concentration-dependent induction of CYP1A1-dependent ethoxyresorufin O-deethylase (EROD) activity by DIM and TCDD in androgen-nonresponsive PC3 human prostate cancer cells (FIG. 12). […] We also investigated the induction of EROD activity in two additional androgen-responsive prostate cancer cell lines.

[2] = test system: CYP1A1-dependent ethoxyresorufin O-deethylase (EROD) activity; test: Induction of EROD activity in LnCAP prostate cancer cells; type: cell-based, human
Excerpt: as §1

[3] = test system: CYP1A1-dependent ethoxyresorufin O-deethylase (EROD) activity; test: Induction of EROD activity in PC3 prostate cancer cells
Excerpt: as §1

[4] = test system: 22Rv1 human prostate cancer cells; test: Proliferation of 22Rv1 prostate cancer cells; type: cell-based; conditions: 1 nM TCDD
[5] = target: T1, PPARγ (Homo sapiens, UniProt P37231); test: pGAL4-PPARγ / pGAL45 luciferase reporter assay in MCF-7 breast cancer cells; type: cell-based; conditions: 5 μM
T1 construct: expressed in transfected cells; host or cells: MCF-7 breast cancer cells
T1 sequence (P37231 238-503 limits assumed): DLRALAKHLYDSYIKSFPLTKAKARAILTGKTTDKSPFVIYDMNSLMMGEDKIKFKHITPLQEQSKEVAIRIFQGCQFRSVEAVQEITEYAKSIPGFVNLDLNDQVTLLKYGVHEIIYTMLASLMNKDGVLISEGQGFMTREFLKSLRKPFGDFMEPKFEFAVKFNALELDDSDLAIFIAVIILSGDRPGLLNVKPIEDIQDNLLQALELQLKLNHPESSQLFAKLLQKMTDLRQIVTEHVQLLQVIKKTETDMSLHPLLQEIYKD
Excerpt: Peroxisome proliferator-activated receptor (PPAR) is a nuclear receptor that induces differentiation in multiple tissues and cell lines. Synthetic compounds that bind PPAR (inhibit growth, induce differentiation in multiple tumor cell lines, and inhibit mammary carcinogenesis in rodent models (Mueller et al., “Terminal differentiation of human breast cancer through PPAR” Mol. Cell. 1:465 470, 1998; Elstner et al., “Ligands for peroxisome proliferator-activated receptor gamma and retinoic acid receptor inhibit growth and induce apoptosis of human breast cancer cells in vitro and in BNX mice” Proc. Natl. Acad. Sci. USA 95:8806 8811, 1998; Brockman et al., “Activation of PPARγ leads to inhibition of anchorage independent growth of human colorectal cancer cells” Gastroenterology 115:2049 1055, 1998; Tontonoz et al., “Terminal differentiation of human lipsarcoma cells induced by ligands for peroxisome proliferator-activated receptor and the retinoid X receptor” Proc. Natl. Acad. Sci. USA 94:237 241, 1997; Suh et al., “A new ligand for the peroxisome proliferator-activated receptor-PPAR, GW7845, inhibits rat mammary carcinogenesis” Cancer Res. 59:56715673, 1999). […] Ligand activation of pGAL4-PPARγ is detected using a construct containing five tandem GAL4 response elements (pGAL45) linked to a luciferase reporter gene.

Row | Structure (SMILES) | Induction of EROD activity in 22Rv1 cells [1] | Induction of EROD activity in LnCAP cells [2] | Treatment time of maximal EROD induction in PC3 cells ([3]; 10 nM TCDD) [h] | Induction of EROD activity in PC3 cells ([3]; 10 μM DIM, 10 nM TCDD) | Induction of EROD activity in PC3 cells after 24 hours ([3]; 24 hours) | Proliferation of 22Rv1 human prostate cancer cells [4] | Increase in reporter gene (luciferase) activity, pGAL4-PPARγ [5] [fold]
1 | Clc1cc2c(cc1Cl)Oc1cc(Cl)c(Cl)cc1O2 [TCDD, 2,3,7,8-tetrachlorodibenzo-p-dioxin] | induced EROD activity | significant induction of EROD activity | 96 | induced EROD activity | minimal (but significant) induction | inhibited proliferation | –
2 | CCCCC/C=C/C=C1/C(=O)C=C[C@@H]1C/C=C\CCCC(=O)O [PGJ, 15-deoxy-γ^12,14-prostaglandin J2] | – | – | – | – | – | – | 2
